Source: US9242977B2, “Trk-inhibiting compound” (ONO PHARMACEUTICAL CO., LTD., priority 2012, dated 2016)

What was measured:
TrkA [1] = molecular target: T1, TrkA (Homo sapiens (Human), UniProt P04629); assay: Measurement of TrkA enzyme-inhibiting activity (LanthaScreen TR-FRET kinase assay); type: biochemical; settings: final ATP 150 μM, read-out: TrkA inhibitory activity (IC50; μM)
Method: TrkA-inhibiting activity was measured according to the following method using LanthaScreen™ kinase assay reagents (Invitrogen; Fluorescein-Poly GT, LanthaScreen™ Tb-PY20 and TR-FRET Dilution Buffer), TrkA (Invitrogen), ATP (Sigma-Aldrich), a kinase reaction buffer (50 mM HEPES buffer (Sigma-Aldrich) (pH 7.5) containing 0.01% Brij35 (Sigma-Aldrich), 10 mM MgCl2 (Sigma-Aldrich) and 1 mM EGTA (Sigma-Aldrich)) and 0.5 M EDTA (pH 8.0) (Invitrogen).
The present compound was dissolved in dimethylsulfoxide (hereinafter abbreviated as DMSO) to prepare a 10 mM solution. The test compound at 10 mM was distributed into a 96-well plate and serially diluted with DMSO with the geometrical ratio of 3. The serial dilutions (DMSO solutions) were diluted with the kinase reaction buffer to 20-fold to prepare solutions of the present compound with 5-times concentrations (DMSO concentration: 5%). TrkA was diluted with the kinase reaction buffer to prepare a solution at 38.5 ng/mL (enzyme solution). Adenosine triphosphate (hereinafter abbreviated as ATP) was preliminarily diluted in distilled water to prepare a 10 mM solution which was then divided into containers and stored at −20° C. The 10 mM ATP solution and Fluorescein-Poly GT were diluted in the kinase reaction buffer to prepare a solution containing […] of ATP and 500 nM of Fluorescein-Poly GT (ATP-substrate solution). EDTA (0.5 M; pH 8.0) and LanthaScreen™ Tb-PY20 were diluted in the TR-FRET Dilution Buffer to prepare a solution containing 20 mM of EDTA and 4 nM of LanthaScreen™ Tb-PY20 (detection buffer).
The solutions of the present compound (5 μL/well) and the enzyme solution (10 μL/well) were added to a 96-half well assay plate and the plate was shaken at room temperature for 10 minutes on a plate shaker (IKA™ MTS2/4 digital microplate, IKA Japan K.K.). As a control and a blank, the kinase reaction buffer containing 5% DMSO (5 μL/well) was added in place of the solution of the present compound. As a blank, the kinase reaction buffer (10 μL/well) was added in the place of the enzyme solution. The ATP-substrate solution (10 μL/well) was then added to the plate to initiate kinase reaction and the plate was shaken in the dark at room temperature for 1 hour on the plate shaker (final concentration of TrkA: 15.4 ng/mL, final concentration of the substrate: 200 nM and final concentration of ATP: 150 μM). Kinase reaction was terminated by adding the detection buffer (25 μL/well) to the plate and the plate was shaken in the dark at room temperature for 30 minutes on the plate shaker. On an Analyst GT (Molecular Devices Japan, K.K.) the wells were irradiated with excitation light at 340 nm and the fluorescence intensities at 520 nm and 495 nm were measured. The fluorescence intensity at 520 nm for each well was divided by the fluorescence intensity at 495 nm to calculate the time resolved fluorescence resonance energy transfer (TR-FRET) ratio.
The inhibition rate (%) of the present compound was calculated according to the following Equation 1: Inhibition rate (%)={1−(AX−AB)/(AC−AB)×100 Equation 1
wherein AX: the TR-FRET ratio when the present compound is added;
AB: the TR-FRET of the blank; and
AC: the TR-FRET of the control.
The value for 50% inhibition by the present compound (IC50 value) was calculated from the inhibition curve based on the inhibition rate of the present compound at respective concentrations.

TrkA [2] = molecular target: T1, TrkA; assay: TrkA kinase-inhibiting activity using human TrkA expressing cells (CellSenser TrkA-NFAT-bla CHO-K1, NGF-stimulated reporter assay); type: cell-based; settings: CHO-K1 cells expressing human TrkA and NFAT-bla; NGF 50 ng/ml; read-out: TrkA inhibitory activity (IC50; μM)
Method: TrkA kinase-inhibiting activity in cell systems was measured using CHO-K1 cells expressing human TrkA and NFAT-bla (CellSenser™ TrkA-NFAT-bla CHO-K1 cells, Invitrogen).
On the day before the assay, CellSenser™ TrkA-NFAT-bla CHO-K1 cells were suspended in an assay medium (Opti-MEM1 Reduced Serum Medium (Invitrogen) containing 0.5% dialysed fetal bovine serum (Invitrogen), 0.1 mM nonessential amino acids (Invitrogen), 1 mM sodium pyruvate (Invitrogen) and antibiotics (100 U/mL penicillin and 100 μg/mL streptomycin (Invitrogen)) and plated at a density of 2.4×10^4 cells/40 μL/well in a 96-well clear bottom plate (Corning, Catalogue No.: 3882). In some wells were added only the assay medium at 40 μL/well (Cell-free). On the day of the assay, 10 mM of the present compound (DMSO solution) was distributed in a 96-well plate (Costar, Catalogue No.: 3363) and serially diluted with DMSO with the geometrical ratio of 3. The serial dilutions were diluted with the assay medium to 100-fold to prepare a solution of the present compound with a 10-times concentration (DMSO concentration: 1%). To the plate where cells were plated was added the present compound at 5 μL/well and the plate was incubated in a CO2 incubator with 5% CO2, 95% Air at 37° C. for 30 minutes. For a control and a blank, the assay medium containing 1% DMSO was added at 5 μL/well in place of the solution of the present compound. Subsequently the assay medium containing NGF (Mouse 2.5s, Natural, Invitrogen) was added to the plate at 5 µL/well (final concentration of NGF: 50 ng/ml) and the plate was incubated in a CO2 incubator with 5% CO2, 95% Air at 37° C. for 5 hours. For a group of blanks, the assay medium was added in place of NGF at 5 μL/well. A reporter assay detection reagent (10 μL/well) was added to the plate and the plate was then incubated in the dark at room temperature for 120 minutes. The reporter assay detection reagent was prepared from LiveBLAzer™-FRET B/G Loading Kit (Invitrogen). On an Analyst GT (Molecular Devices Japan, K.K.) the wells were irradiated with excitation light at 405 nm and the fluorescence intensities at 460 nm and 530 nm were measured. The time resolved fluorescence resonance energy transfer (TR-FRET) ratio of each well was calculated according to the following Equation 2. TR-FRET Ratio=(A460X−A460F)/(A530X−A530F) Equation 2
wherein A460X: the fluorescence intensity at 460 nm of the present compound, control or blank;
A460F: the fluorescence intensity at 460 nm of the Cell-free;
A530X: the fluorescence intensity at 530 nm of the present compound, control or blank; and
A530F: the fluorescence intensity at 530 nm of the Cell-free. […]
The IC50 value of the present compound was calculated from the inhibition curve based on the inhibition rate of the present compound at respective concentrations.

T1 sequence (P04629 33-796): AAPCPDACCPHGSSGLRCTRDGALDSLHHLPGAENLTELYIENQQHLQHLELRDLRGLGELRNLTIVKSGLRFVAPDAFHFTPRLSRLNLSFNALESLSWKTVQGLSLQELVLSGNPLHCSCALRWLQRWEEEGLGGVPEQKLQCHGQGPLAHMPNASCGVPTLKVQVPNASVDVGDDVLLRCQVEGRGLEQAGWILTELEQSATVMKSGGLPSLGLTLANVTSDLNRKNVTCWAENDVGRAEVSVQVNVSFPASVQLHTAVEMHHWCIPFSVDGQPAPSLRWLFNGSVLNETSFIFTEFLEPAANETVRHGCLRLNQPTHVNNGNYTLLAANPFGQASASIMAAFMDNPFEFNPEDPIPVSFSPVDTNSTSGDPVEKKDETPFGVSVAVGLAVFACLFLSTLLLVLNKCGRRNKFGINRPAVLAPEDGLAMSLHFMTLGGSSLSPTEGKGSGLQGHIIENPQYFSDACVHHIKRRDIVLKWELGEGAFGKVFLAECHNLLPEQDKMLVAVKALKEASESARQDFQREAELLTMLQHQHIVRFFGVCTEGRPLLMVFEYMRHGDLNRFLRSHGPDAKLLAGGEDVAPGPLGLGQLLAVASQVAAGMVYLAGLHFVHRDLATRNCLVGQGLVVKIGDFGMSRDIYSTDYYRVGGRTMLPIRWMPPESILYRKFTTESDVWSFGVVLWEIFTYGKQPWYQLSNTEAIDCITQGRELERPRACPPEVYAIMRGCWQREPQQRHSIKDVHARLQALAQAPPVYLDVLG

SMILES | IC50 (TrkA [1]) [µM] | IC50 (TrkA [2]) [µM]
CC(C)(C)c1cc(NC(=O)Nc2cnc(Oc3ccc(-c4cnc(N5CCCC5=O)s4)cc3)nc2)n(-c2ccc(S(N)(=O)=O)cc2)n1 [Example 66-72, 4-[3-(2-methyl-2-propanyl)-5-{[(2-{4-[2-(2-oxo-1-pyrrolidinyl)-1,3-thiazol-5-yl]phenoxy}-5-pyrimidinyl)carbamoyl]amino}-1H-pyrazol-1-yl]benzenesulfonamide] | 0.05 | 0.032
O=C(Nc1cnc(Oc2ccc(-c3cnc(N4CCCC4=O)s3)cc2)nc1)Nc1cc(C2CC2)nn1-c1ccccc1 [Example 72-7, 1-(3-cyclopropyl-1-phenyl-1H-pyrazol-5-yl)-3-(2-{4-[2-(2-oxo-1-pyrrolidinyl)-1,3-thiazol-5-yl]phenoxy}-5-pyrimidinyl)urea] | 0.03 | 0.033
CC(C)(C)c1cc(NC(=O)Nc2cnc(Oc3ccc(-c4cnc(N5CCCC5=O)s4)cc3)nc2)n(-c2ccc3c(c2)CCO3)n1 [Example 66-19, 1-[1-(2,3-dihydro-1-benzofuran-5-yl)-3-(2-methyl-2-propanyl)-1H-pyrazol-5-yl]-3-(2-{4-[2-(2-oxo-1-pyrrolidinyl)-1,3-thiazol-5-yl]phenoxy}-5-pyrimidinyl)urea] | 0.02 | 0.004
CC(=O)Nc1ccc(-n2nc(C(C)(C)C)cc2NC(=O)Nc2cnc(Oc3ccc(-c4cnc(N5CCCC5=O)s4)cc3)nc2)cc1 [Example 66-28, N-{4-[3-(2-methyl-2-propanyl)-5-{[(2-{4-[2-(2-oxo-1-pyrrolidinyl)-1,3-thiazol-5-yl]phenoxy}-5-pyrimidinyl)carbamoyl]amino}-1H-pyrazol-1-yl]phenyl}acetamide] | 0.08 | 0.014
Cn1ncc2cc(-n3nc(C(C)(C)C)cc3NC(=O)Nc3cnc(Oc4ccc(-c5cnc(N6CCCC6=O)s5)cc4)nc3)ccc21 [Example 71, 1-[1-(1-methyl-1H-indazol-5-yl)-3-(2-methyl-2-propanyl)-1H-pyrazol-5-yl]-3-(2-{4-[2-(2-oxo-1-pyrrolidinyl)-1,3-thiazol-5-yl]phenoxy}-5-pyrimidinyl)urea] | 0.03 | 0.002
CC(C)c1ncc(C(F)(F)F)cc1NC(=O)Nc1cnc(Oc2ccc(-c3cnc(N4CCCC4=O)s3)cc2)nc1 [Example 84-41, 1-[2-isopropyl-5-(trifluoromethyl)-3-pyridinyl]-3-(2-{4-[2-(2-oxo-1-pyrrolidinyl)-1,3-thiazol-5-yl]phenoxy}-5-pyrimidinyl)urea] | 0.09 | –
Cc1ccccc1-n1nc(C(C)(F)F)cc1NC(=O)Nc1cnc(Oc2ccc(-c3cnc(N4CCCC4=O)s3)cc2)nc1 [Example 72-3, 1-[3-(1,1-difluoroethyl)-1-(2-methylphenyl)-1H-pyrazol-5-yl]-3-(2-{4-[2-(2-oxo-1-pyrrolidinyl)-1,3-thiazol-5-yl]phenoxy}-5-pyrimidinyl)urea] | 0.06 | 0.018
Cc1ccc(-n2nc(C(C)(C)C)cc2NC(=O)Nc2cnc(Oc3ccc(-c4cnc(N5CCCC5=O)s4)cc3)nc2)cc1C [Example 65-1, 1-[1-(3,4-dimethylphenyl)-3-(2-methyl-2-propanyl)-1H-pyrazol-5-yl]-3-(2-{4-[2-(2-oxo-1-pyrrolidinyl)-1,3-thiazol-5-yl]phenoxy}-5-pyrimidinyl)urea] | 0.08 | 0.002
CC(C)(C)c1cc(NC(=O)Nc2cnc(Oc3ccc(-c4cnc(N5CCCC5=O)s4)cc3)nc2)n(C2CCOCC2)n1 [Example 80-2, 1-[3-(2-methyl-2-propanyl)-1-(tetrahydro-2 H-pyran-4-yl)-1H-pyrazol-5-yl]-3-(2-{4-[2-(2-oxo-1-pyrrolidinyl)-1,3-thiazol-5-yl]phenoxy}-5-pyrimidinyl)urea] | 0.07 | –
Cc1ccccc1-n1nc(C(F)(F)F)cc1NC(=O)Nc1cnc(Oc2ccc(-c3cnc(N4CCCC4=O)s3)cc2)nc1 [Example 72-1, 1-[1-(2-methylphenyl)-3-(trifluoromethyl)-1H-pyrazol-5-yl]-3-(2-{4-[2-(2-oxo-1-pyrrolidinyl)-1,3-thiazol-5-yl]phenoxy}-5-pyrimidinyl)urea] | 0.05 | 0.011
O=C(Nc1cnc(Oc2ccc(-c3cnc(N4CCCCC4=O)s3)cc2)nc1)Nc1cc(C(F)(F)F)cnc1-c1ccc(C(F)(F)F)nc1 [Example 9, 1-[5,6′-bis(trifluoromethyl)-2,3′-bipyridin-3-yl]-3-(2-{4-[2-(2-oxo-1-piperidinyl)-1,3-thiazol-5-yl]phenoxy}-5-pyrimidinyl)urea] | 0.16 | 0.093
COC(=O)c1cccc(-n2nc(C(C)(C)C)cc2NC(=O)Nc2cnc(Oc3ccc(-c4cnc(N5CCCC5=O)s4)cc3)nc2)c1 [Example 66-27, Methyl 3-[3-(2-methyl-2-propanyl)-5-{[(2-{4-[2-(2-oxo-1-pyrrolidinyl)-1,3-thiazol-5-yl]phenoxy}-5-pyrimidinyl)carbamoyl]amino}-1H-pyrazol-1-yl]benzoate] | 0.13 | 0.01
Cc1ccc(-c2ncc(C(F)(F)F)cc2NC(=O)Nc2cnc(Oc3ccc(-c4cnc(N5CCCCCC5=O)s4)cc3)nc2)cc1C [Example 59, 1-[2-(3,4-dimethylphenyl)-5-(trifluoromethyl)-3-pyridinyl]-3-(2-{4-[2-(2-oxo-1-azepanyl)-1,3-thiazol-5-yl]phenoxy}-5-pyrimidinyl)urea] | 0.19 | 0.07
O=C(Nc1cnc(Oc2ccc(-c3cnc(N4CCCC4=O)s3)cc2)nc1)Nc1cc(C(F)(F)F)cnc1-c1ccc(C(F)(F)F)nc1 [Example 50, 1-[5,6′-bis(trifluoromethyl)-2,3′-bipyridin-3-yl]-3-(2-{4-[2-(2-oxo-1-pyrrolidinyl)-1,3-thiazol-5-yl]phenoxy}-5-pyrimidinyl)urea] | 0.04 | 0.012
